# Reference: patent US5670538A, “Use of prodelphinidins for obtaining medicaments intended for the treatment of arthrosis” (Laboratoires Dolisos, priority 1992, dated 1997)
# Tested on: ferricytochrome C
# Test: Control experiments: direct reduction of ferricytochrome C by the product itself
# Assay type: biochemical
# Conditions: effect not quantifiable
# Text: This effect not being quantifiable, no conclusion can consequently be drawn on a possible inhibiting effect of these products on the production of the superoxide anion by the activated PMNs.
compound,measurement,value
"O=c1ccc2cc(O[C@@H]3O[C@H](CO)[C@@H](O)[C@H](O)[C@H]3O)c(O)cc2o1 [esculoside, reference compound]",Direct reduction of ferricytochrome C,powerful reducers of ferricytochrome C
